Literature values, collected in US9427419B2, “Compositions comprising dimethyl sulfoxide (DMSO)” (Abela Pharmaceuticals, Inc., priority 2005, dated 2016).

How the values were obtained:
cerebral blood flow = details: variety of brain injuries including stroke and head trauma, animals and humans
[1] = doses of 250 mg/Kg
[2] = after oral administration
[3] = higher doses, from 15 to 30 grams daily
endothelin-1 = details: continuous intravenous infusion for 120 minutes at 0.125 g/min, angina pectoris
[4] = tested on: asymmetric dimethylarginine (ADMA); details: continuous intravenous infusion for 120 minutes at 0.125 g/min, angina pectoris
[5] = tested on: cerebral blood flow, contused brain; details: mice, after experimental traumatic injury

Q: What does the source list for `C[S+](C)[O-]` [DMSO, dimethyl sulfoxide]?
A: excitotoxic death of the neurons induced by glutamate (hippocampal neurons): can prevent excitotoxic death; glutamate responses in hippocampal neurons (hippocampal neurons; DMSO concentrations 0.5-[…]): inhibit glutamate responses; electrophysiological responses and calcium influx induced by glutamate, NMDA and AMPA (hippocampal neurons; rapidly reversible manner): suppresses; cerebral blood flow (CBF) (cerebral blood flow): increase CBF

Q: With `N[C@@H](CC(=O)O)C(=O)O` [L-aspartate] as the compound, how does the adverse effects [1] read?
A: without adverse effects

Q: Which “time of peak plasma levels” value [2] does the source give for `N=C(N)NCCC[C@H](N)C(=O)O` [L-arginine] here?
A: 1 to 2 h

Q: What about the “most common adverse reactions” value [3] of the same compound?
A: nausea, abdominal cramps and diarrhea

Q: And the “levels of endothelin-1” value (endothelin-1)?
A: reduce the levels of endothelin-1

Q: And the “serum levels of asymmetric dimethylarginine (ADMA)” value [4]?
A: lowered the serum levels of asymmetric dimethylarginine (ADMA)

Q: What about the “cerebral blood flow (CBF) post-injury” value [5] of the same compound?
A: increased CBF post-injury

Q: And the contusion volume [5]?
A: reduction in contusion volume

Q: For `NCCCC[C@H](N)C(=O)O` [L-lysine], which adverse effects [1] is on record?
A: without adverse effects
